# According to patent publication US12678440B2, “Compositions and methods for treating misfolded protein ocular disorders” (CASE WESTERN RESERVE UNIVERSITY, priority 2020, dated 2026):
# Tests used:
# [1] = test system: RHO transcripts; assay: qPCR of RHO transcripts in NIH3T3 (RHO^P23H/GFP) and NIH3T3 (RHO^WT/GFP) cells; format: cell-based; details: 10 μM, 24 h; for WT and P23H rhodopsin transcripts in comparison to DMSO control: both cell lines; for Rho mRNA level (qPCR): vs DMSO
# Protocol: NIH3T3 (RHO^WT/GFP) and NIH3T3 (RHO^P23H/GFP) cells were seeded in the 24-well plates at a density of 2.5×10^5 cells/well and cultured at 37° C. with 5% CO2 for overnight. Cells were then incubated with the culture medium containing compounds for 24 h. After aspirating the medium, cells were collected and lysed in 300 μL/well of TRIzol (ThermoFisher, 15596026, Waltham, MA USA) for 5 min. Samples were vigorously mixed with 60 μL chloroform for 30 s, then centrifuged at 12,000×g for 15 min at 4° C. The upper aqueous phase containing RNA was taken out and mixed with 150 μL isopropanol by vigorous shaking. After sedation for 10 min, samples were centrifuged at 12,000×g for 10 min at 4° C. The pellets were washed with 300 μL 75% ethanol and centrifuged at 7,500×g at 4° C. for 5 min. The RNA pellets were air-dried for 15 min and dissolved in 30 μL nuclease-free water (FisherScientific, BP2484-100, Houston, TX USA). The yield and purity of RNA were assessed by a NanoDrop spectrometer. The cDNAs was generated from 1 μg RNA using a High-Capacity RNA-to-cDNA Kit (ThermoFisher, 4387406, Waltham, MA USA). qPCR amplifications were performed using the PowerUp SYBR Green Master Mix (ThermoFisher, A25741, Waltham, MA USA) with the cDNA templates and primers, and the reaction was controlled by a QuantStudio 3 thermocycler (ThermoFisher, Waltham, MA USA). Primer sequences are as follows: RHO, forward 5′-CCCTTCTCCAACGTCACAGG-3′ (SEQ ID NO: 1), reverse 5′-TGAGGAAGTTGATGGGGAAGC-3′ (SEQ ID NO: 2); β-actin, forward 5′-ACCTTCTACAATGAGCTGCG-3′ (SEQ ID NO: 3), reverse 5′-CTGGATGGCTACGTACATGG-3′ (SEQ ID NO: 4).
# [2] = test system: P23H rhodopsin; assay: Non-radioactive pulse-chase assay in NIH3T3 (RHO^P23H/GFP) cells; format: cell-based; details: 10 μM; for Rate of Rho^P23H degradation (Pulse-chase): 24 h of chase, vs DMSO; for BTN-AHA labeled P23H rhodopsin at 24 h of chase: in comparison to DMSO control
# Protocol: To quantify rhodopsin degradation, a non-radioactive pulse-chase assay was used with a ‘click’ reaction. Briefly, NIH3T3 (Rho^P23H/GFP) or NIH3T3 (Rho^WT/GFP) cells were cultured in a 24-well plate at 3×10^5 cells/well in the complete medium with 10% FBS. The medium was aspirated after overnight culture, and cells were gently washed once with 1 mL/well of PBS. Cell were incubated in the L-methionine-free DMEM (Gibco, 21013-024, Gaithersburg, MD USA) for 1 h to exhaust the intracellular methionine. Then the cells were pulsed with L-AHA at final concentration 50 μM for 4 h. Meanwhile, the cells treated with 50 μM L-methionine were used as negative control. After labeling, cells were replaced with the complete DMEM medium with 2 mM L-methionine in the presence or absence of active compounds for a varying time of chase. Then cells were lysed with PBS containing 0.1% SDS, 1% DDM and the complete protease inhibitor cocktail. The total protein concentrations were measured by a BCA assay. Cell lysate containing 200 μg total protein was mixed with 5 μM BTN-sDIBO to make a ‘click’ reaction for 1 h at 37° C. Samples were incubated with Dynabeads™ Protein G binding with 1D4 anti-rhodopsin antibody for 15 min at room temperature followed by three washes with PBS containing 0.02% Tween 20. Proteins were eluted with 50 mM Glycine at pH 2.8 for 10 min at room temperature and then loaded onto nitrocellulose membranes. After air-dried, the membranes were blocked with 5% milk and immunoblotted with 0.25 μg/mL HRP-conjugated SA.
SMILES,WT and P23H rhodopsin transcripts in comparison to DMSO control [1],Rho mRNA level (qPCR) [1],Rate of Rho^P23H degradation (Pulse-chase) [2],BTN-AHA labeled P23H rhodopsin at 24 h of chase [2],increase of rhodopsin transcripts compared to DMSO control ([1]; both NIH3T3 (RHO^P23H/GFP) and NIH3T3 (RHO^WT/GFP) cells)
CC(=O)OC(CC(=O)[O-])C[N+](C)(C)C (centres unmarked) [CL-001],reduced non-selectively,Down,Up,significantly reduced,
CC(=O)OC(CC(=O)O)C[N+](C)(C)C (centres unmarked) [CL-002],reduced non-selectively,Down,Up,significantly reduced,
O=C(O)C1=CC=CC(O)C1O (centres unmarked) [CL-003],reduced non-selectively,Down,No Change,,
CC(O)CN (centres unmarked) [CL-004],reduced non-selectively,Down,No Change,,
NCC(=O)COP(=O)(O)O [CL-005],,Up,Up,significantly reduced,up to 2 fold
O=C(NC1CCNCC1)c1n[nH]cc1NC(=O)c1c(Cl)cccc1Cl [CL-006],reduced non-selectively,Down,No Change,,
CCn1cnc2c(N)ncnc21 [CL-007],reduced non-selectively,Down,Up,significantly reduced,
CCC(C)(O)C(O)C(=O)O (centres unmarked) [CL-008],reduced non-selectively,Down,No Change,,
"CN(Cc1cnc2nc(N)nc(N)c2n1)c1ccc(C(=O)N[C@@H](CCC(=O)O)C(=O)O)cc1 [CL-009, N-[4-[[(2,4-diamino-6-pteridinyl)methyl]methylamino]benzoyl]-L-glutamic acid]",did not affect the transcription,No Change,Up,significantly reduced,
